Measurements from patent publication US8461328B2, “Tricyclic heterocyclic compounds, compositions and methods of use thereof” (Genentech, Inc., priority 2010, dated 2013).

Columns and labels:
Type in all cases: biochemical
TYK2 = molecular target: T1, TYK2 (Homo sapiens, UniProt P29597); test: TYK2 inhibition (Table 4)
T1 construct: made in house; host or cells: SF9 insect cells (baculovirus)
T1 sequence (P29597 873-1187): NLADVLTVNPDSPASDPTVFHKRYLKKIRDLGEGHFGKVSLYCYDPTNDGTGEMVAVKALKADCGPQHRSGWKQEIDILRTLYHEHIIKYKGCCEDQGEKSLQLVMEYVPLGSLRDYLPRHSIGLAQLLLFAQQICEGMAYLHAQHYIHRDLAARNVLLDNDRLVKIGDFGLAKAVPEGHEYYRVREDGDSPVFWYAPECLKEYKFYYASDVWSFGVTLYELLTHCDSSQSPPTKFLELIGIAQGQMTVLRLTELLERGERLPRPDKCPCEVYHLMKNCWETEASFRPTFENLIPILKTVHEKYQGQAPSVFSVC

JAK3 = molecular target: T2, JAK3 (Homo sapiens, UniProt P52333); test: JAK3 inhibition (Table 4); conditions: read-out: JAK3 Ki
T2 construct: made in house; host or cells: SF9 insect cells (baculovirus)
T2 sequence (P52333 783-1124): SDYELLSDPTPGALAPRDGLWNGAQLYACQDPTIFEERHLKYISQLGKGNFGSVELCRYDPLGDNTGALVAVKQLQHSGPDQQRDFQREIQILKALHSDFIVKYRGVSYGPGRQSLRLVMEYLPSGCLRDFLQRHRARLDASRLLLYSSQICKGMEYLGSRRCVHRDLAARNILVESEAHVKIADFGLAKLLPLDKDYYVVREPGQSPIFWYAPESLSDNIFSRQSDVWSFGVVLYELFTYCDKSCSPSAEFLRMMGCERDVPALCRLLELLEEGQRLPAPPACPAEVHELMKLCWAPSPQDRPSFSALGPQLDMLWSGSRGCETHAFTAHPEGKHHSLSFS

JAK2 = molecular target: T3, JAK2 (Homo sapiens, UniProt O60674); test: JAK2 inhibition (Table 4); conditions: read-out: JAK2 Ki
T3 construct: made in house; host or cells: SF9 insect cells (baculovirus)
T3 sequence (O60674 812-1132): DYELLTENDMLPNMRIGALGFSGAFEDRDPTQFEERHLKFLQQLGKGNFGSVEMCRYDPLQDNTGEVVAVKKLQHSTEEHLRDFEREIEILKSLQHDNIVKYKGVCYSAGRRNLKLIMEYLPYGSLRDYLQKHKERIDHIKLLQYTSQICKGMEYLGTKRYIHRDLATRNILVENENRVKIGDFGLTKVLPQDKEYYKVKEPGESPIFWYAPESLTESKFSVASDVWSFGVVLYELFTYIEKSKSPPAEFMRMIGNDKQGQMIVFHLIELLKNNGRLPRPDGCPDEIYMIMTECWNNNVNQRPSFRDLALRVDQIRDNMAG

JAK1 = molecular target: T4, JAK1 (Homo sapiens, UniProt P23458); test: JAK1 inhibition (Table 4); conditions: read-out: JAK1 Ki
T4 construct: made in house; host or cells: SF9 insect cells (baculovirus)
T4 sequence (P23458 852-1154): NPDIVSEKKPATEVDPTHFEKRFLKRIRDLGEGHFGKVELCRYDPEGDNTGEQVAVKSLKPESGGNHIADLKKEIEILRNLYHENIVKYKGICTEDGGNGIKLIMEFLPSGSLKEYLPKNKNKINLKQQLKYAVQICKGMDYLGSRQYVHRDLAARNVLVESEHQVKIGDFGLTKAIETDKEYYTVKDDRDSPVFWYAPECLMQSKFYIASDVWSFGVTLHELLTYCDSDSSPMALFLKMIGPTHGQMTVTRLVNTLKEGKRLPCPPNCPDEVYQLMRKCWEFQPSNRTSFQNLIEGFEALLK

Row | Compound | Ki (TYK2) | Ki (JAK3) | Ki (JAK2) | Ki (JAK1)
1 | O=C(CN1CCCCC1=O)N1CCC(n2cnc3cnc4[nH]ccc4c32)CC1 [Example 441, 1-{2-Oxo-2-[4-(6H-1,3,5,6-tetraaza-as-indacen-1-yl)-piperidin-1-yl]-ethyl}-piperidin-2-one] | 832 nM | 1530 nM | 179 nM | 55.8 nM
2 | CCS(=O)(=O)N1CCC(n2cnc3cnc4[nH]ccc4c32)CC1 [Example 442, 1-(1-Ethanesulfonyl-piperidin-4-yl)-1,6-dihydro-1,3,5,6-tetraaza-as-indacene] | 18.8 nM | 105 nM | 4.02 nM | 2.87 nM
3 | O=S(=O)(C1CCCC1)N1CCC(n2cnc3cnc4[nH]ccc4c32)CC1 [Example 443, 1-(1-Cyclopentanesulfonyl-piperidin-4-yl)-1,6-dihydro-1,3,5,6-tetraaza-as-indacene] | 47.2 nM | 419 nM | 13.9 nM | 8.11 nM
4 | O=C1CCCN1c1ccc(S(=O)(=O)N2CCC(n3cnc4cnc5[nH]ccc5c43)CC2)cc1 [Example 445, 1-{4-[4-(6H-1,3,5,6-Tetraaza-as-indacen-1-yl)-piperidine-1-sulfonyl]-phenyl}-pyrrolidin-2-one] | 96.9 nM | 84 nM | 39.2 nM | 11.9 nM
5 | N#Cc1ccc(S(=O)(=O)N2CCC(n3cnc4cnc5[nH]ccc5c43)CC2)c(Cl)c1 [Example 446, 3-Chloro-4-[4-(6H-1,3,5,6-tetraaza-as-indacen-1-yl)-piperidine-1-sulfonyl]-benzonitrile] | 10.3 nM | 189 nM | 2.25 nM | 1.14 nM
6 | Cc1noc(C)c1S(=O)(=O)N1CCC(n2cnc3cnc4[nH]ccc4c32)CC1 [Example 447, 1-[1-(3,5-Dimethyl-isoxazole-4-sulfonyl)-piperidin-4-yl]-1,6-dihydro-1,3,5,6-tetraaza-as-indacene] | 84.4 nM | 477 nM | 21.2 nM | 16.4 nM
7 | Cc1nn(C)cc1S(=O)(=O)N1CCC(n2cnc3cnc4[nH]ccc4c32)CC1 [Example 448, 1-[1-(1,3-Dimethyl-1H-pyrazole-4-sulfonyl)-piperidin-4-yl]-1,6-dihydro-1,3,5,6-tetraaza-as-indacene] | 268 nM | 873 nM | 35.7 nM | 34.4 nM
8 | O=S(=O)(Cc1ccccc1)N1CCC(n2cnc3cnc4[nH]ccc4c32)CC1 [Example 449, 1-(1-Phenylmethanesulfonyl-piperidin-4-yl)-1,6-dihydro-1,3,5,6-tetraaza-as-indacene] | 58.2 nM | 32.6 nM | 8.22 nM | 3.5 nM

The next lines start with the values.

Row | Ki (TYK2) | Ki (JAK3) | Ki (JAK2) | Ki (JAK1) | Compound
9 | 32.8 nM | 659 nM | 10.2 nM | 3.06 nM | CS(=O)(=O)c1ccc(S(=O)(=O)N2CCC(n3cnc4cnc5[nH]ccc5c43)CC2)cc1 [Example 450, 1-(1-(4-(methylsulfonyl)phenylsulfonyl)piperidin-4-yl)-1,6-dihydroimidazo[4,5-d]pyrrolo[2,3-b]pyridine]
10 | 325 nM | 428 nM | 36.1 nM | 36.6 nM | CC(C)(C#N)C(=O)N1CCC(n2cnc3cnc4[nH]ccc4c32)CC1 [Example 451, 2,2-Dimethyl-3-oxo-3-[4-(6H-1,3,5,6-tetraaza-as-indacen-1-yl)-piperidin-1-yl]-propionitrile]
11 | 262 nM | 514 nM | 78.5 nM | 18.5 nM | O=C([C@@H]1COCCN1)N1CCC(n2cnc3cnc4[nH]ccc4c32)CC1 [Example 455, (S)-Morpholin-3-yl-[4-(6H-1,3,5,6-tetraaza-as-indacen-1-yl)-piperidin-1-yl]-methanone]
12 | 176 nM | 346 nM | 354 nM | 70.1 nM | C[C@@H](O)c1nc2cnc3[nH]ccc3c2n1[C@@H]1CCCOC1 [Example 456, (R)-1-[(R)-1-(Tetrahydro-pyran-3-yl)-1,6-dihydro-1,2,3,5,6-tetraaza-as-indacen-2-yl]-ethanol]
